This is an account of results in PMC10285738, “Identification of macrocyclic peptides which activate bacterial cylindrical proteases” (RSC Medicinal Chemistry, 2023).

A short description of data set [1]: two-component Cys/Cys stapling: bis-thioether alkylation with 1,3-dichloroacetone (B), 1.1 equiv; TCEP 1.1 equiv added if the peptide had oxidised. The note with it: the molecule shown is the open-chain precursor, 100 mM phosphate buffer pH 7.4 with DMSO (peptide stock) and MeCN (staple stock), 2.7 mM, 22.0 °C, 2 steps.
A short description of data set [2]: two-component Cys/Cys stapling: bis-thiol-Michael addition to 4,6-divinylpyrimidine bearing N-methylglycine (constraint 1 = A), 1.1 equiv; TCEP 1.1 equiv added if the peptide had oxidised. Particulars: the molecule shown is the open-chain precursor, 100 mM phosphate buffer pH 7.4 with DMSO from peptide and staple stocks, 2.8 mM, 22.0 °C, 2 steps.
Data set [3] concerns the target T1, Sa.ClpP (Staphylococcus aureus, UniProt Q2G036).
T1 construct: Strep-tag (C); made in house; host or cells: E. coli SG1146a (lacks endogenous ClpP)
Description: Thermal shift assay (differential scanning fluorimetry). It is filed as binding. The note with it: S. aureus ClpP 5 µM, ligand 200 µM, HEPES 100 mM pH 7, NaCl 150 mM, sypro orange 5x, 30-90 °C in 0.5 °C increments; mean ± SD of duplicates of at least two independent experiments. The source says:
All concentrations are given as final concentrations. […]
real-time qPCR (Bio-Rad CF X96).
SD of duplicates of at least two independent experiments.
equilibrated Superdex 200 Increase 10/300 GL column (Cytiva). […]
Background: In DSF a fluorescence change marks the thermal transition of the protein.

Starred links: 1 amine or outer side, 2 acyl side, 3 side chain; linkers in the order of their positions; H or OH if unused. Positions of bridges follow the written chain, without caps; N, C: chain ends. Non-standard residues stand in square brackets, D forms with d. Residues, ends and D or L forms follow the SMILES beside them. Phe(3,5-F2) = N[C@@H](Cc1cc(F)cc(F)c1)C(=O)O; CH2COCH2 = O=C(C[*:1])C[*:2]

T1 sequence (Q2G036 whole entry): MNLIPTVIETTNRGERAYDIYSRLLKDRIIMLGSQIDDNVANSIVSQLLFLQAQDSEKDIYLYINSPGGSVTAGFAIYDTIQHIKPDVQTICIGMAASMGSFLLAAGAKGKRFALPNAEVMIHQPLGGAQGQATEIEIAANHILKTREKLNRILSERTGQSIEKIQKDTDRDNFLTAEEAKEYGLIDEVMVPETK

For the compound `CC[C@H](C)[C@H](NC(=O)CNC(=O)[C@H](CSCC(=O)CCl)NC(C)=O)C(=O)NCC(=O)N[C@H](Cc1ccccc1)C(=O)NCC(=O)N[C@@H](CS)C(N)=O` [Ac-Cys-Gly-Ile-Gly-D-Phe-Gly-Cys-NH2], the ring closure, yield over several steps in data set [1] (26-membered ring) was determined as 46.6%. Regarding `C=Cc1cc(CCSC[C@H](NC(C)=O)C(=O)N[C@H](C(=O)NCC(=O)N[C@@H](Cc2ccccc2)C(=O)NCC(=O)N[C@@H](CS)C(N)=O)[C@@H](C)CC)nc(N(C)CC(=O)O)n1` [Ac-Cys-Ile-Gly-Phe-Gly-Cys-NH2], the ring closure, yield over several steps in data set [2] (27-membered ring) turned out to be 75.6%.

`CC[C@H](C)[C@H](NC(=O)CNC(=O)[C@H](CSCC(=O)CCl)NC(C)=O)C(=O)NCC(=O)N[C@@H](Cc1ccccc1)C(=O)NCC(=O)N[C@@H](C)C(=O)N[C@@H](CS)C(N)=O` [Ac-Cys-Gly-Ile-Gly-Phe-Gly-Ala-Cys-NH2]: the ring closure, yield over several steps in data set [1] (29-membered ring) is 48.3%. In the case of `CC[C@H](C)[C@H](NC(=O)[C@H](CSCC(=O)CCl)NC(C)=O)C(=O)NCC(=O)N[C@@H](Cc1ccccc1)C(=O)NCC(=O)N[C@@H](C)C(=O)N[C@@H](CS)C(N)=O` [Ac-Cys-Ile-Gly-Phe-Gly-Ala-Cys-NH2], the ring closure, yield over several steps in data set [1] (26-membered ring) came out at 13.5%.

Consider `CC[C@H](C)[C@@H]1NC(=O)CNC(=O)[C@@H](NC(C)=O)CSCC(=O)CSC[C@@H](C(N)=O)NC(=O)CNC(=O)[C@H](Cc2cc(F)cc(F)c2)NC(=O)CNC1=O` [P9-B] (Ac-CGIG[Phe(3,5-F2)]GC-NH2; linker 1-7 via CH2COCH2), for which the “apparent increase in melting temperature of Sa.ClpP” value in data set [3] stood at 1.1 ± 0.2 °C. Regarding `C=Cc1cc(CCSC[C@H](NC(C)=O)C(=O)NCC(=O)N[C@H](C(=O)NCC(=O)N[C@@H](Cc2ccccc2)C(=O)NCC(=O)N[C@@H](CS)C(N)=O)[C@@H](C)CC)nc(N(C)CC(=O)O)n1` [Ac-Cys-Gly-Ile-Gly-Phe-Gly-Cys-NH2], the ring closure, yield over several steps in data set [2] (30-membered ring) amounted to 6.8%. On to `C=Cc1cc(CCSC[C@H](NC(C)=O)C(=O)NCC(=O)N[C@H](C(=O)NCC(=O)N[C@@H](Cc2ccccc2)C(=O)NCC(=O)N[C@@H](C)C(=O)N[C@H](C(=O)N[C@@H](CS)C(N)=O)[C@@H](C)O)[C@@H](C)CC)nc(N(C)CC(=O)O)n1` [Ac-Cys-Gly-Ile-Gly-Phe-Gly-Ala-Thr-Cys-NH2], for which the ring closure, yield over several steps in data set [2] (36-membered ring) was determined as 34.3%. With `CC[C@H](C)[C@H](NC(=O)CNC(=O)[C@H](CSCC(=O)CCl)NC(C)=O)C(=O)NCC(=O)N[C@@H](Cc1ccccc1)C(=O)NCC(=O)N[C@@H](C)C(=O)N[C@H](C(=O)N[C@@H](CS)C(N)=O)[C@@H](C)O` [Ac-Cys-Gly-Ile-Gly-Phe-Gly-Ala-Thr-Cys-NH2], the ring closure, yield over several steps in data set [1] (32-membered ring) stood at 19%.

For `C=Cc1cc(CCSC[C@H](NC(C)=O)C(=O)NCC(=O)N[C@H](C(=O)NCC(=O)N[C@@H](Cc2ccccc2)C(=O)NCC(=O)N[C@@H](C)C(=O)N[C@@H](CS)C(N)=O)[C@@H](C)CC)nc(N(C)CC(=O)O)n1` [Ac-Cys-Gly-Ile-Gly-Phe-Gly-Ala-Cys-NH2], the ring closure, yield over several steps in data set [2] (33-membered ring) was found to be 46.2%. With `C=Cc1cc(CCSC[C@H](NC(C)=O)C(=O)NCC(=O)N[C@H](C(=O)NCC(=O)N[C@@H](Cc2cc(F)cc(F)c2)C(=O)NCC(=O)N[C@@H](CS)C(N)=O)[C@@H](C)CC)nc(N(C)CC(=O)O)n1` [Ac-Cys-Gly-Ile-Gly-Phe(3,5-F2)-Gly-Cys-NH2], the ring closure, yield over several steps in data set [2] (30-membered ring) was determined as 14.1%. For the compound `C=Cc1cc(CCSC[C@H](NC(C)=O)C(=O)NCC(=O)N[C@H](C(=O)NCC(=O)N[C@@H](C)C(=O)NCC(=O)N[C@@H](CS)C(N)=O)[C@@H](C)CC)nc(N(C)CC(=O)O)n1` [Ac-Cys-Gly-Ile-Gly-Ala-Gly-Cys-NH2], in data set [2] (30-membered ring), the ring closure, yield over several steps turned out to be 90.6%. For `CC[C@H](C)[C@H](NC(=O)[C@H](CSCC(=O)CCl)NC(C)=O)C(=O)NCC(=O)N[C@@H](Cc1ccccc1)C(=O)NCC(=O)N[C@@H](C)C(=O)N[C@H](C(=O)N[C@@H](CS)C(N)=O)[C@@H](C)O` [Ac-Cys-Ile-Gly-Phe-Gly-Ala-Thr-Cys-NH2], the ring closure, yield over several steps in data set [1] (29-membered ring) is 55.3%. Consider `CC[C@H](C)[C@H](NC(=O)CNC(=O)[C@H](CSCC(=O)CCl)NC(C)=O)C(=O)NCC(=O)N[C@@H](C)C(=O)NCC(=O)N[C@@H](CS)C(N)=O` [Ac-Cys-Gly-Ile-Gly-Ala-Gly-Cys-NH2], for which the ring closure, yield over several steps in data set [1] (26-membered ring) is 18.4%. Take `C=Cc1cc(CCSC[C@H](NC(C)=O)C(=O)N[C@H](C(=O)NCC(=O)N[C@@H](Cc2ccccc2)C(=O)NCC(=O)N[C@@H](C)C(=O)N[C@@H](CS)C(N)=O)[C@@H](C)CC)nc(N(C)CC(=O)O)n1` [Ac-Cys-Ile-Gly-Phe-Gly-Ala-Cys-NH2]: the ring closure, yield over several steps in data set [2] (30-membered ring) was determined as 25.7%. On the same count and under the same terms, in the case of `C=Cc1cc(CCSC[C@H](NC(C)=O)C(=O)NCC(=O)N[C@H](C(=O)NCC(=O)N[C@H](Cc2ccccc2)C(=O)NCC(=O)N[C@@H](CS)C(N)=O)[C@@H](C)CC)nc(N(C)CC(=O)O)n1` [Ac-Cys-Gly-Ile-Gly-D-Phe-Gly-Cys-NH2] it was 61%.

Consider `C=Cc1cc(CCSC[C@H](NC(C)=O)C(=O)N[C@H](C(=O)NCC(=O)N[C@@H](Cc2ccccc2)C(=O)NCC(=O)N[C@@H](C)C(=O)N[C@H](C(=O)N[C@@H](CS)C(N)=O)[C@@H](C)O)[C@@H](C)CC)nc(N(C)CC(=O)O)n1` [Ac-Cys-Ile-Gly-Phe-Gly-Ala-Thr-Cys-NH2], for which, in data set [2] (33-membered ring), the ring closure, yield over several steps came to 20.5%. `CC[C@H](C)[C@H](NC(=O)CNC(=O)[C@H](CSCC(=O)CCl)NC(C)=O)C(=O)NCC(=O)N[C@@H](Cc1cc(F)cc(F)c1)C(=O)NCC(=O)N[C@@H](CS)C(N)=O` [Ac-Cys-Gly-Ile-Gly-Phe(3,5-F2)-Gly-Cys-NH2]: in data set [1] (26-membered ring), the ring closure, yield over several steps was 43.3%.

Consider `CC[C@H](C)[C@H](NC(=O)CNC(=O)[C@H](CSCC(=O)CCl)NC(C)=O)C(=O)NCC(=O)N[C@@H](Cc1ccccc1)C(=O)NCC(=O)N[C@@H](CS)C(N)=O` [Ac-Cys-Gly-Ile-Gly-Phe-Gly-Cys-NH2], for which the ring closure, yield over several steps in data set [1] (26-membered ring) was found to be 27.3%.
